In the supplement of paper PMC10307832:

Experiments:
Test in all cases: relative viability (nuclei count vs DMSO), 5 days (fraction); higher = more cells survive
BAY61-3606 + Foretinib = compound: COC1=C(C=C(C=C1)C2=CC3=NC=CN3C(=N2)NC4=C(C=CC=N4)C(=O)N)OC [BAY61-3606] + COc1cc2c(Oc3ccc(NC(=O)C4(C(=O)Nc5ccc(F)cc5)CC4)cc3F)ccnc2cc1OCCCN1CCOCC1 [Foretinib] (partner 0.25 µM)
How it was run: (§1)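 After 5 days of treatment, lung cancer cells in 1536-well plates were fixed and stained in a single step (final 0.05% Triton X-100, 1% formaldehyde, 1 ug/ml Hoechst) and their nuclei counted on 4× images. Treatment had been applied by pin tool the day after seeding as one drug alone or as a fixed anchor-drug dose with five library-drug doses (not always all listed) in √10 steps. Relative viability is the nuclei count of treated wells divided by that of vehicle wells, and values are medians of duplicate plates.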

Doxorubicin + AZD7762 = compound: COc1cccc2c1C(=O)c1c(O)c3c(c(O)c1C2=O)C[C@@](O)(C(=O)CO)C[C@@H]3O[C@H]1C[C@H](N)[C@H](O)[C@H](C)O1 [Doxorubicin] + NC(=O)Nc1cc(-c2cccc(F)c2)sc1C(=O)N[C@H]1CCCNC1 [AZD7762] (partner 0.2 µM)
How it was run: as §1

Doxorubicin + OSI-027 = compound: COc1cccc2c1C(=O)c1c(O)c3c(c(O)c1C2=O)C[C@@](O)(C(=O)CO)C[C@@H]3O[C@H]1C[C@H](N)[C@H](O)[C@H](C)O1 [Doxorubicin] + COc1cccc2cc(-c3nc([C@H]4CC[C@H](C(=O)O)CC4)n4ncnc(N)c34)[nH]c12 [OSI-027] (partner 0.5 µM)
How it was run: as §1

BAY61-3606 + Lapatinib = compound: COC1=C(C=C(C=C1)C2=CC3=NC=CN3C(=N2)NC4=C(C=CC=N4)C(=O)N)OC [BAY61-3606] + CS(=O)(=O)CCNCc1ccc(-c2ccc3ncnc(Nc4ccc(OCc5cccc(F)c5)c(Cl)c4)c3c2)o1 [Lapatinib] (partner 2 µM)
How it was run: as §1

| Cell Line | relative viability (BAY61-3606 + Foretinib; first compound 0.02 µM) | relative viability (BAY61-3606 + Foretinib; first compound 0.06325 µM) | relative viability (BAY61-3606 + Foretinib; first compound 0.2 µM) | relative viability (BAY61-3606 + Foretinib; first compound 0.6325 µM) | relative viability (BAY61-3606 + Foretinib; first compound 2 µM) | relative viability (Doxorubicin + AZD7762; first compound 0.001 µM) | relative viability (Doxorubicin + AZD7762; first compound 0.003162 µM) | relative viability (Doxorubicin + AZD7762; first compound 0.01 µM) | relative viability (Doxorubicin + AZD7762; first compound 0.03162 µM) | relative viability (Doxorubicin + AZD7762; first compound 0.1 µM) | relative viability (Doxorubicin + OSI-027; first compound 0.003162 µM) | relative viability (Doxorubicin + OSI-027; first compound 0.01 µM) | relative viability (Doxorubicin + OSI-027; first compound 0.03162 µM) | relative viability (Doxorubicin + OSI-027; first compound 0.1 µM) | relative viability (BAY61-3606 + Lapatinib; first compound 0.02 µM) | relative viability (BAY61-3606 + Lapatinib; first compound 0.06325 µM) | relative viability (BAY61-3606 + Lapatinib; first compound 0.2 µM) | relative viability (BAY61-3606 + Lapatinib; first compound 0.6325 µM) | relative viability (BAY61-3606 + Lapatinib; first compound 2 µM) | relative viability (Doxorubicin + OSI-027; first compound 0.001 µM) |
| --- | --- | --- | --- | --- | --- | --- | --- | --- | --- | --- | --- | --- | --- | --- | --- | --- | --- | --- | --- | --- |
| NCI-H441 | 0.979 | 1.12 | 1.15 | 0.862 | 0.754 | 1.05 | 1.07 | 0.954 | 0.853 | 0.912 | 0.524 | 0.445 | 0.261 | 0.279 | – | – | – | – | – | – |
| NCI-H520 | 0.935 | 0.716 | 0.839 | 0.669 | 0.744 | – | – | – | – | – | 0.274 | 0.233 | 0.193 | 0.202 | 0.9 | 1.05 | 0.901 | 0.959 | 0.729 | 0.249 |
| NCI-H522 | – | – | – | – | – | 0.7 | 0.745 | 0.967 | 0.656 | 0.918 | 0.72 | 0.792 | 0.756 | 0.709 | – | – | – | – | – | 0.568 |
| NCI-H661 | 1.06 | 1.05 | 0.99 | 1.02 | 0.941 | – | – | – | – | – | 0.639 | 0.625 | 0.46 | 0.291 | 0.575 | 0.534 | 0.415 | 0.541 | 0.371 | 0.829 |
| NCI-H1299 | 1.12 | 1.07 | 1.11 | 1.03 | 1.07 | – | – | – | – | – | – | – | – | – | 0.945 | 0.98 | 0.97 | 0.963 | 0.953 | – |
| NCI-H1563 | 1.03 | 0.99 | 0.893 | 0.931 | 0.847 | – | – | – | – | – | 0.788 | 0.684 | 0.589 | 0.5 | 0.982 | 0.899 | 0.974 | 1.19 | 0.809 | 0.813 |
| NCI-H1623 | 0.841 | 0.919 | 0.896 | 0.864 | 0.846 | – | – | – | – | – | 0.41 | 0.462 | 0.434 | 0.423 | – | – | – | – | – | 0.388 |
| NCI-H1648 | – | – | – | – | – | 0.762 | 0.524 | 0.741 | 0.843 | 0.654 | 0.276 | 0.261 | 0.259 | 0.266 | – | – | – | – | – | 0.291 |
| NCI-H1650 | 1.14 | 1.02 | 1.02 | 1.34 | 0.498 | – | – | – | – | – | 0.567 | 0.394 | 0.153 | 0.144 | 0.862 | 0.671 | 0.8 | 0.849 | 0.517 | 0.496 |
| NCI-H1703 | 0.337 | – | 0.315 | 0.316 | 0.346 | 0.131 | 0.146 | 0.146 | 0.119 | 0.114 | – | – | – | – | 1.55 | 1.2 | 0.978 | 1.02 | 0.891 | – |
| NCI-H1792 | – | – | – | – | – | 0.653 | 0.824 | 0.721 | 0.522 | 0.45 | 0.674 | 0.713 | 0.709 | 0.625 | 0.904 | 0.951 | 0.949 | 0.902 | 0.95 | – |
| NCI-H2009 | 1.34 | 1.31 | 1.22 | 1.26 | 1.06 | – | – | – | – | – | 0.687 | 0.568 | 0.632 | 0.402 | 1 | 0.971 | 0.937 | 0.962 | 0.861 | 0.634 |
| NCI-H2023 | 0.864 | 0.906 | 1.03 | 0.812 | 0.812 | – | – | – | – | – | 0.363 | 0.314 | 0.142 | 0.0903 | 0.917 | 0.805 | 0.869 | 1.45 | 0.591 | 0.347 |
| NCI-H2228 | 0.891 | 0.914 | 0.714 | 0.858 | 0.645 | – | – | – | – | – | 0.62 | 0.414 | 0.274 | 0.209 | 1.34 | 1.01 | 1.27 | 1 | 0.894 | 0.35 |
| NCI-H2342 | 1.03 | 1.05 | 1.02 | 1.22 | 0.957 | 0.522 | 0.491 | 0.485 | 0.426 | 0.496 | 0.563 | 0.597 | 0.59 | 0.609 | – | – | – | – | – | 0.628 |
| SK-LU-1 | 0.863 | 0.863 | 0.745 | 0.758 | 0.408 | – | – | – | – | – | 0.297 | 0.28 | 0.224 | 0.173 | 0.953 | 0.81 | 0.885 | 0.862 | 0.532 | 0.359 |
| SK-MES-1 | 1.08 | 0.918 | 0.85 | 0.96 | 0.839 | – | – | – | – | – | 0.719 | 0.516 | 0.174 | 0.129 | 0.594 | 0.483 | 0.469 | 0.424 | 0.42 | 0.637 |
| SW 900 | 0.826 | 0.949 | 0.571 | 1.11 | 0.586 | – | 0.647 | 0.604 | 0.45 | 0.358 | 0.708 | 0.571 | 0.401 | 0.226 | – | – | – | – | – | 0.373 |
| SW 1573 | 1.18 | 0.872 | 0.81 | 0.839 | 0.757 | – | – | – | – | – | 0.513 | 0.316 | 0.125 | 0.103 | 1.18 | 1.01 | 1.08 | 1.11 | 0.858 | 0.527 |
